Test results as given in patent publication US11684614B2, “Formulations of hydroxypyridonate actinide/lanthanide decorporation agents” (priority 2017, dated 2023).
“And” between values parts separate entries of the source, which are not always exact repeats. Equal entries are not always repeated.

Test: Repeated-treatment efficacy for removing an intravenous dose of 238Pu (excretion, tissue retention, clinical observations), female and male arms
Type: in vivo, Swiss-Webster mice
Conditions: for % Recovered Dose-Female Animals-Urine per Day-Day 11 Necropsy: animal group H
Experimental: The objective of this study was to characterize the efficacy of 3,4,3-L1(1,2-HOPO) at enhancing elimination from an internal plutonium burden in female and male Swiss-Webster mice administered a soluble citrate complex of ^238Pu and treated multiple times, starting at 24 hours after the exposure. Efficacy was evaluated by comparing the tissue contents, urinary and fecal excretions of ^238Pu in treated animals versus untreated animals.
The medical countermeasure 3,4,3-L1(1,2-HOPO) was administered parenterally (ip) or orally (po) via consecutive injections or gavages (six daily or twelve twice daily) starting at 24 hours post contamination at the following four selected doses: 30 μmol/kg ip, 150 μmol/kg po, 300 μmol/kg po, and 600 μmol/kg po (equivalent to respective approximate human doses range of […], using the accepted conversion system of mouse doses into human equivalent doses—HED—based on body surface area). Oral doses also included the permeability enhancer selected during formulation development work.
• Challenge isotope: ^238Pu • Challenge dose: 25 nCi (i.e., approximately 0.8 μCi/kg) • Route of contamination: Intravenous (iv) tail-vein • Route of treatment: Intraperitoneal Injection (ip) or Oral (po) • Frequency of treatment: Multiple (once- or twice-daily for 6 days) doses, starting 24 hr postcontamination • Treatment dose calculation: Dose calculations (mg/kg or μmol/kg) for the decorporation agent were based on the individual body weight measured after contamination. • Study Duration: 11 days, in-life
c. […] Test article and control dose formulations were prepared within 1 day of dose administration, by weighing out the appropriate amount of test article, dispersing in vehicle. For ip solutions, the test article was used alone, while for oral suspensions, a mixture of test article and excipient (90:10, w:w) was used. The pH was adjusted to 7.0-7.4 for ip administration and 5.0-5.5 for oral administration with sterile NaOH. Dose formulations were prepared at room temperature and filter-sterilized. • Storage: 2-8° C.; refrigerated; protected from light. • Characterization: The concentration of each test article formulation was verified by high-performance liquid chromatography-mass spectrometry. • Test Article Handling: Test, reference, and control article formulations were handled with the use of eye protection, gloves, and a protective laboratory coat. • Correct Dose Assurance: The test article was weighed with calibrated balances. The administration of each dose formulation was properly documented, and the amount administered to each animal recorded.
e. Experimental Procedures (In-Life Evaluations and Euthanasia) • Contamination: Single administration by intravenous (iv) tail-vein injection (0.2 mL injection volume) under isoflurane anesthesia. Three standard 0.2 mL injections were performed into polyethylene bottles and pre-loaded with aliquots of concentrated nitric acid on each injection day. Six female and six male mice were culled for necropsy 1 hr post-contamination and were used as standards. A11 standards were processed and counted together with the final samples to allow verification of the contamination dose. • Dose Administration: Single administration by intraperitoneal injection (ip) or oral gavage (po) under isoflurane anesthesia. • Mortality/Morbidity: Assessed at least once daily. • Clinical Observations: Recorded once daily (4 hr post-dose on day of treatment), or more often as clinical signs warranted. […]

## O=C(NCCCN(CCCCN(CCCNC(=O)c1cccc(=O)n1O)C(=O)c1cccc(=O)n1O)C(=O)c1cccc(=O)n1O)c1cccc(=O)n1O [3,4,3-L1(1,2-HOPO)]
Animal group B, day 1, female mice
  % Recovered Dose-Female Animals-Feces per Day-Day 7 Necropsy: 9.41%
Animal group B, day 2, female mice
  % Recovered Dose-Female Animals-Feces per Day-Day 7 Necropsy: 8.35%
Animal group B, day 3, female mice
  % Recovered Dose-Female Animals-Feces per Day-Day 7 Necropsy: 2.59%
Animal group B, day 4, female mice
  % Recovered Dose-Female Animals-Feces per Day-Day 7 Necropsy: 1.99%
Animal group B, day 5, female mice
  % Recovered Dose-Female Animals-Feces per Day-Day 7 Necropsy: 2.39%
Animal group B, day 6, female mice
  % Recovered Dose-Female Animals-Feces per Day-Day 7 Necropsy: 2.12%
Animal group B, day 7, female mice
  % Recovered Dose-Female Animals-Feces per Day-Day 7 Necropsy: 1.74%
Animal group C, day 1, female mice, listed as 3,4,3-LI(1,2-HOPO)
  % Recovered Dose-Female Animals-Feces per Day-Day 7 Necropsy: 11.51% and 5.30% and 8.74% and 7.20%
Animal group C, day 2, female mice, listed as 3,4,3-LI(1,2-HOPO)
  % Recovered Dose-Female Animals-Feces per Day-Day 7 Necropsy: 13.77% and 8.33% and 12.44% and 14.41%
Animal group C, day 3, female mice, listed as 3,4,3-LI(1,2-HOPO)
  % Recovered Dose-Female Animals-Feces per Day-Day 7 Necropsy: 4.51% and 3.49% and 4.66% and 4.88%
Animal group C, day 4, female mice, listed as 3,4,3-LI(1,2-HOPO)
  % Recovered Dose-Female Animals-Feces per Day-Day 7 Necropsy: 3.35% and 3.00% and 3.74% and 4.08%
Animal group C, day 5, female mice, listed as 3,4,3-LI(1,2-HOPO)
  % Recovered Dose-Female Animals-Feces per Day-Day 7 Necropsy: 2.71% and 2.82% and 2.30% and 2.85%
Animal group C, day 6, female mice, listed as 3,4,3-LI(1,2-HOPO)
  % Recovered Dose-Female Animals-Feces per Day-Day 7 Necropsy: 2.52% and 2.18% and 2.39% and 3.01%
Animal group C, day 7, female mice, listed as 3,4,3-LI(1,2-HOPO)
  % Recovered Dose-Female Animals-Feces per Day-Day 7 Necropsy: 2.15% and 1.62% and 1.98% and 2.66%
Animal group E, day 1, female mice, listed as 3,4,3-LI(1,2-HOPO)
  % Recovered Dose-Female Animals-Feces per Day-Day 7 Necropsy: 6.10% and 10.77% and 13.26% and 10.08%
Animal group E, day 2, female mice, listed as 3,4,3-LI(1,2-HOPO)
  % Recovered Dose-Female Animals-Feces per Day-Day 7 Necropsy: 8.15% and 10.30% and 9.61% and 15.30%
Animal group E, day 3, female mice, listed as 3,4,3-LI(1,2-HOPO)
  % Recovered Dose-Female Animals-Feces per Day-Day 7 Necropsy: 2.89% and 5.25% and 5.53% and 2.67%
Animal group E, day 4, female mice, listed as 3,4,3-LI(1,2-HOPO)
  % Recovered Dose-Female Animals-Feces per Day-Day 7 Necropsy: 2.76% and 3.97% and 4.52% and 2.90%
Animal group E, day 5, female mice, listed as 3,4,3-LI(1,2-HOPO)
  % Recovered Dose-Female Animals-Feces per Day-Day 7 Necropsy: 1.35% and 1.95% and 2.80% and 2.17%
Animal group E, day 6, female mice, listed as 3,4,3-LI(1,2-HOPO)
  % Recovered Dose-Female Animals-Feces per Day-Day 7 Necropsy: 1.90% and 1.34% and 2.01% and 2.18%
Animal group E, day 7, female mice, listed as 3,4,3-LI(1,2-HOPO)
  % Recovered Dose-Female Animals-Feces per Day-Day 7 Necropsy: 2.23% and 1.29% and 1.91% and 2.16%
Animal group F, day 1, female mice, listed as 3,4,3-LI(1,2-HOPO)
  % Recovered Dose-Female Animals-Feces per Day-Day 7 Necropsy: 9.32% and 9.52% and 7.17% and 5.19%
Animal group F, day 2, female mice, listed as 3,4,3-LI(1,2-HOPO)
  % Recovered Dose-Female Animals-Feces per Day-Day 7 Necropsy: 8.03% and 12.87% and 9.08% and 6.87%
Animal group F, day 3, female mice, listed as 3,4,3-LI(1,2-HOPO)
  % Recovered Dose-Female Animals-Feces per Day-Day 7 Necropsy: 2.78% and 4.30% and 4.68% and 2.63%
Animal group F, day 4, female mice, listed as 3,4,3-LI(1,2-HOPO)
  % Recovered Dose-Female Animals-Feces per Day-Day 7 Necropsy: 2.68% and 3.98% and 3.14% and 2.89%
Animal group F, day 5, female mice, listed as 3,4,3-LI(1,2-HOPO)
  % Recovered Dose-Female Animals-Feces per Day-Day 7 Necropsy: 2.30% and 3.01% and 3.85% and 3.00%
Animal group F, day 6, female mice, listed as 3,4,3-LI(1,2-HOPO)
  % Recovered Dose-Female Animals-Feces per Day-Day 7 Necropsy: 2.40% and 2.04% and 2.26% and 1.91%
Animal group F, day 7, female mice, listed as 3,4,3-LI(1,2-HOPO)
  % Recovered Dose-Female Animals-Feces per Day-Day 7 Necropsy: 1.39% and 1.59% and 2.15% and 2.13%
Day 1, female mice, listed as 3,4,3-LI(1,2-HOPO)
  % Recovered Dose-Female Animals-Urine per Day-Day 11 Necropsy: 9.33% and 10.42% and 5.66% and 9.35% and 11.13% and 9.41% and 6.93% and 9.39%
Day 2, female mice, listed as 3,4,3-LI(1,2-HOPO)
  % Recovered Dose-Female Animals-Urine per Day-Day 11 Necropsy: 3.78% and 5.22% and 5.30% and 4.96% and 5.23% and 5.12% and 3.93% and 5.10%
Day 3, female mice, listed as 3,4,3-LI(1,2-HOPO)
  % Recovered Dose-Female Animals-Urine per Day-Day 11 Necropsy: 4.12% and 4.15% and 6.39% and 5.55% and 5.41% and 4.29% and 3.92% and 3.16%
Day 4, female mice, listed as 3,4,3-LI(1,2-HOPO)
  % Recovered Dose-Female Animals-Urine per Day-Day 11 Necropsy: 2.95% and 3.74% and 4.22% and 3.34% and 3.22% and 4.38% and 2.99% and 5.19%
Day 5, female mice, listed as 3,4,3-LI(1,2-HOPO)
  % Recovered Dose-Female Animals-Urine per Day-Day 11 Necropsy: 3.24% and 2.72% and 3.06% and 2.44% and 3.11% and 2.27% and 1.41% and 2.10%
Day 6, female mice, listed as 3,4,3-LI(1,2-HOPO)
  % Recovered Dose-Female Animals-Urine per Day-Day 11 Necropsy: 1.23% and 2.05% and 2.60% and 1.54% and 1.89% and 1.51% and 0.91% and 1.79%
Day 7, female mice, listed as 3,4,3-LI(1,2-HOPO)
  % Recovered Dose-Female Animals-Urine per Day-Day 11 Necropsy: 1.33% and 1.66% and 2.35% and 1.27% and 1.38% and 1.35% and 1.24% and 1.89%
